Data as given in article PMC9917184, “Synthesis and Biological Evaluation of Potential Oncoimmunomodulator Agents” (International Journal of Molecular Sciences, 2023).
Where two headings read alike, the source gives them in different places.

Tests used:
A-549 = A-549 cell viability in co-culture with Jurkat T cells (flow cytometry count); assay type: cell-based, human; conditions: 24 h; for viability at 100 µM: Homo sapiens, A549, A-549/Jurkat T co-culture, IFN-γ stimulated, read-out: percentage of living A-549 cells relative to non-treated co-cultures; for inhibition rate of A-549 cell viability: co-cultured with Jurkat T cells, 100 μM
Experimental: (§1) The effect of the synthesized compounds on tumor cell proliferation in the presence of PD-1-expressing Jurkat T cells was also studied. This assay was carried out, as in the previous experiments, in the HT29, MCF7, and A549 cell lines (see Table 4). Interferon γ-stimulated cancer cells were treated for 24 h with the compounds at 100 μM in presence of Jurkat T cells. Then, cells were counted using flow cytometry. The percentage of living cells relative to non-treated co-cultures (control) was established for both cancer and immune cells in every co-culture.
(§2) To study the effect of the compounds on the cell viability in co-culture with Jurkat T cells or THP-1 cells, 10^5 or 2 × 10^5 of the corresponding cancer cells line per well were seeded and incubated for 24 h, then the medium was changed by one cell culture medium supplemented with IFN-γ (10 ng/mL; human, Invitrogen®) and containing 5 × 10^5 or 10^5 Jurkat T cells or THP-1, respectively, per well and 100 µM of the corresponding compound or DMSO for the […] control. After 24 h/48 h of incubation, supernatants were collected to determine Jurkat T or THP-1 living cells, and on the other hand, corresponding cancer cells were collected with trypsin. Both types of suspension cells were fixed with 4% in PBS paraformaldehyde and counted by flow cytometry.

MCF-7 = MCF-7 cell viability in co-culture with Jurkat T cells (flow cytometry count); assay type: cell-based, human; conditions: 24 h; for viability at 100 µM: Homo sapiens, MCF7, MCF-7/Jurkat T co-culture, IFN-γ stimulated, read-out: percentage of living MCF-7 cells relative to non-treated co-cultures
Experimental: as §1, §2

membrane VEGFR-2 = experiment: Membrane VEGFR-2 relative quantification by flow cytometry in cancer cells co-cultured with Jurkat T cells; assay type: cell-based, human; conditions: 100 μM, 24 h, relative to non-treated co-cultures
Experimental: (§3) We determined by flow cytometry the effect of these compounds on the expression of membrane PD-L1 in cancer cells when they were co-cultured with immune cells. Thus, interferon γ-stimulated cancer cells were treated for 24 h with the compounds at 100 μM in presence of Jurkat T cells. Then, cells were fixed and treated with anti-PD-L1 conjugated to AlexaFluor®647. We took advantage of the versatility of flow cytometry to simultaneously measure the expression of membrane VEGFR-2 by using anti-VEGFR-2 conjugated to fluorescein.
(§4) To study the effect of the compounds on every biological target in co-cultured cancer cell lines, the compounds were incubated for 24h as described before.
(§5) To detect membrane PD-L1 and VEGFR-2, after the cell treatments, they were collected, fixed with 4% in PBS paraformaldehyde, and stained with FITC Mouse monoclonal Anti-Human VEGFR-2 (ab184903) and Alexa Fluor® 647 Rabbit monoclonal Anti-PD-L1 (ab215251).

c-Myc = experiment: Total c-Myc relative quantification by flow cytometry in cancer cell lines; assay type: cell-based, human; conditions: 24 h
Experimental: (§6) The effect of these triazole derivates on c-Myc and PD-L1 was measured in three different cancer cell lines (HT-29, MCF-7, A-549) by flow cytometry. Thus, cells were incubated for 24 h with the corresponding compound at a concentration of 100 μM. Dimethyl sulfoxide (DMSO)-treated cells were used as the negative control, and a PD-L1 inhibitor, BMS-8 [29, 31], was used as a reference control. After permeabilization and fixation, cells were treated with anti-PD-L1 conjugated to AlexaFluor®647 and anti-c-Myc conjugated to fluorescein to determine the amount of both targets related to the negative control. Table 1 show the results in terms of the percentage of the detected target in relation to the negative control. This assay was carried out on cancer cell lines HT-29, MCF-7, and A-549.
(§7) To study the effect of the compounds on every biological target in cancer cell lines, the compounds were used at a 100 µM dose.
(§8) For the assay, 10^5 cells per well were incubated for 24 h with the corresponding dose of the tested compound in a total volume of 500 μL of their growth media.
(§9) To detect total PD-L1 and c-Myc, after the cell treatments, they were collected and fixed with 4% in PBS paraformaldehyde. After fixation, a treatment with 0,5% in PBS Triton™ X-100 was performed, and finally, cells were stained with FITC Mouse monoclonal Anti-c-Myc (ab223913) and Alexa Fluor® 647 Rabbit monoclonal Anti-PD-L1 (ab215251).

Jurkat T cells = experiment: Jurkat T cell viability in co-culture with cancer cells (flow cytometry count); assay type: cell-based; conditions: Homo sapiens, 24 h, read-out: percentage of living Jurkat cells relative to non-treated co-cultures
Experimental: as §1, §2

membrane PD-L1 = target: T1, membrane PD-L1 (Homo sapiens, UniProt Q9NZQ7); experiment: Membrane PD-L1 relative quantification by flow cytometry in cancer cells co-cultured with Jurkat T cells; assay type: cell-based; conditions: Jurkat, 24 h; for remaining activity at 100 µM: relative to non-treated co-cultures, read-out: % PDL1 (membrane); for inhibition at 100 µM: HT-29 co-cultured with Jurkat T cells, read-out: membrane PD-L1 inhibition rate
T1 construct: Alexa Fluor® 647 Rabbit monoclonal Anti-PD-L1 (ab215251); endogenous in cells; host or cells: HT-29, MCF-7, A-549 (A17: MCF-7 only; A14: IFN-gamma-stimulated cancer cells co-cultured with Jurkat T cells)
T1 sequence (Q9NZQ7 19-290): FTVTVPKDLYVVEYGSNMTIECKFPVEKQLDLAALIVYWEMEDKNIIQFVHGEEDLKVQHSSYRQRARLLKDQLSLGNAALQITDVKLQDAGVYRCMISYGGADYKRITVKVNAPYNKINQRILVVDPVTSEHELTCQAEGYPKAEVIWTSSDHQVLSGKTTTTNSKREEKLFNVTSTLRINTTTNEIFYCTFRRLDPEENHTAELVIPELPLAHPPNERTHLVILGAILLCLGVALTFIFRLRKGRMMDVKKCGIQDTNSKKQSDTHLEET
Experimental: as §3, §4, §5

HT-29 = HT-29 cell viability in co-culture with Jurkat T cells (flow cytometry count); assay type: cell-based, human; conditions: 24 h; for viability at 100 µM: Homo sapiens, HT-29/Jurkat T co-culture, IFN-γ stimulated, read-out: percentage of living HT-29 cells relative to non-treated co-cultures
Experimental: as §1, §2

PD-L1 = PD-L1 (Homo sapiens, UniProt Q9NZQ7); experiment: Total PD-L1 relative quantification by flow cytometry in cancer cell lines; assay type: cell-based; set-up: Alexa Fluor® 647 Rabbit monoclonal Anti-PD-L1 (ab215251); endogenous in cells; host or cells: HT-29; conditions: 24 h, total PD-L1 relative to negative control (DMSO)
Chain of PD-L1 (Q9NZQ7 19-290): as above
Experimental: as §6, §7, §8, §9

[1] = A549 co-cultured with Jurkat T cells
[2] = HT29 co-cultured with Jurkat T cells
[3] = MCF7 co-cultured with Jurkat T cells
[4] = A-549, 100 µM, relative to negative control (DMSO)
[5] = HT-29, 100 µM, detected target relative to negative control (DMSO)
[6] = MCF-7, 100 µM, relative to negative control (DMSO)
[7] = co-cultured with Jurkat T cells, 100 μM

Structure (SMILES) | viability at 100 µM (A-549) [%] | viability at 100 µM (MCF-7) [%] | %VEGFR2 (membrane) (membrane VEGFR-2; [1]) [%] | %VEGFR2 (membrane) (membrane VEGFR-2; [2]) [%] | %VEGFR2 (membrane) (membrane VEGFR-2; [3]) [%] | % c-Myc (c-Myc; [4]) [%] | % c-Myc (c-Myc; [5]) [%] | % c-Myc (c-Myc; [6]) [%] | viability at 100 µM (Jurkat T cells; A-549/Jurkat T co-culture) [%] | viability at 100 µM (Jurkat T cells; HT-29/Jurkat T co-culture) [%] | viability at 100 µM (Jurkat T cells; MCF-7/Jurkat T co-culture) [%] | remaining activity at 100 µM (membrane PD-L1; [1]) [%] | remaining activity at 100 µM (membrane PD-L1; [2]) [%] | remaining activity at 100 µM (membrane PD-L1; [3]) [%] | viability at 100 µM (HT-29) [%] | remaining activity at 100 µM (PD-L1; A549, A-549, 100 µM) [%] | remaining activity at 100 µM (PD-L1; HT-29, 100 µM) [%] | remaining activity at 100 µM (PD-L1; MCF7, MCF-7, 100 µM) [%] | inhibition rate of A-549 cell viability (A-549) | inhibition at 100 µM (membrane PD-L1) [%] | also measured
OCCc1ccc(CCn2cc(-c3ccccc3)nn2)cc1 [Compound 2, 2-(4-(2-(4-phenyl-1H-1,2,3-triazol-1-yl)ethyl)phenyl)ethan-1-ol] | 123 ± 25 | 80 ± 6 | 90 ± 10 | 101 ± 11 | 86 ± 2 | 79 ± 10 | 115 ± 8 | 122 ± 13 | 89 ± 17 | 107 ± 4 | 87 ± 22 | 60 ± 6 | 124 ± 34 | 82 ± 6 | 79 ± 20 | 76 ± 2 | 82 ± 6 | 115 ± 7 |  |  | 
COc1ccc(C(OCCc2ccc(CCn3cc(-c4ccccc4)nn3)cc2)(c2ccccc2)c2ccc(OC)cc2)cc1 [Compound 1, 1-(4-(2-(bis(4-methoxyphenyl)(phenyl)methoxy)ethyl)phenethyl)-4-phenyl-1H-1,2,3-triazole] | 127 ± 1 | 56 ± 6 | 79 ± 7 | 85 ± 0 | 76 ± 1 | 182 ± 27 | 135 ± 5 | 73 ± 1 | 88 ± 18 | 108 ± 6 | 86 ± 13 | 96 ± 9 | 143 ± 48 | 109 ± 9 | 81 ± 12 | 63 ± 16 | 85 ± 3 | 90 ± 8 |  |  | 
OCCc1ccc(CCn2cc(-c3cccc(Br)c3)nn2)cc1 [Compound 6, 2-(4-(2-(4-(3-bromophenyl)-1H-1,2,3-triazol-1-yl)ethyl)phenyl)ethan-1-ol] | 75 ± 3 | 65 ± 8 | 87 ± 7 | 98 ± 2 | 98 ± 6 | 84 ± 9 | 149 ± 12 | 81 ± 6 | 119 ± 6 | 116 ± 7 | 119 ± 1 | 75 ± 1 | 63 ± 6 | 66 ± 11 | 104 ± 4 | 62 ± 4 | 104 ± 6 | 110 ± 4 | around 30% | 40 to 50 | 
OCCc1ccc(CCn2cc(-c3ccc(Br)cc3)nn2)cc1 [Compound 4, 2-(4-(2-(4-(4-bromophenyl)-1H-1,2,3-triazol-1-yl)ethyl)phenyl)ethan-1-ol] | 79 ± 5 | 87 ± 6 | 99 ± 4 | 94 ± 3 | 121 ± 19 | 95 ± 2 | 108 ± 8 | 91 ± 8 | 122 ± 11 | 145 ± 9 | 218 ± 69 | 80 ± 3 | 54 ± 3 | 89 ± 3 | 115 ± 14 | 55 ± 8 | 111 ± 8 | 237 ± 19 | around 30% | 40 to 50 | inhibition rate of HT-29 cell viability (HT-29; [7]): not active
COc1ccc(C(OCCc2ccc(CCn3cc(-c4cccc(OC)c4)nn3)cc2)(c2ccccc2)c2ccc(OC)cc2)cc1 [Compound 11, 1-(4-(2-(bis(4-methoxyphenyl)(phenyl)methoxy)ethyl)phenethyl)-4-(3-methoxyphenyl)-1H-1,2,3-triazole] | 102 ± 4 | 50 ± 1 | 85 ± 1 | 79 ± 10 | 92 ± 10 | 55 ± 4 | 50 ± 3 | 81 ± 2 | 511 ± 86 | 76 ± 52 | 79 ± 13 | 94 ± 1 | 104 ± 14 | 48 ± 7 | 65 ± 6 | 104 ± 1 | 48 ± 4 | 108 ± 7 |  |  | inhibition rate of MCF-7 cell viability (MCF-7; [7]): half; c-Myc inhibition (c-Myc; HT-29, 100 μM): 50%
